Measured values reported in US11739098B2 (BRISTOL-MYERS SQUIBB COMPANY, priority 2017, dated 2023).

Assays:
Type in all cases: cell-based
human TLR7 = target: T1, human TLR7 (Homo sapiens, UniProt Q9NYK1); assay: TLR7 inhibition reporter assay (HEK-Blue cells, SEAP reporter, gardiquimod stimulation); conditions: HEK-Blue cells overexpressing human TLR7, SEAP reporter, gardiquimod 7.5 μM
T1 construct: host or cells: HEK-Blue cells (HEK293-derived reporter line)
T1 sequence (Q9NYK1 27-1049): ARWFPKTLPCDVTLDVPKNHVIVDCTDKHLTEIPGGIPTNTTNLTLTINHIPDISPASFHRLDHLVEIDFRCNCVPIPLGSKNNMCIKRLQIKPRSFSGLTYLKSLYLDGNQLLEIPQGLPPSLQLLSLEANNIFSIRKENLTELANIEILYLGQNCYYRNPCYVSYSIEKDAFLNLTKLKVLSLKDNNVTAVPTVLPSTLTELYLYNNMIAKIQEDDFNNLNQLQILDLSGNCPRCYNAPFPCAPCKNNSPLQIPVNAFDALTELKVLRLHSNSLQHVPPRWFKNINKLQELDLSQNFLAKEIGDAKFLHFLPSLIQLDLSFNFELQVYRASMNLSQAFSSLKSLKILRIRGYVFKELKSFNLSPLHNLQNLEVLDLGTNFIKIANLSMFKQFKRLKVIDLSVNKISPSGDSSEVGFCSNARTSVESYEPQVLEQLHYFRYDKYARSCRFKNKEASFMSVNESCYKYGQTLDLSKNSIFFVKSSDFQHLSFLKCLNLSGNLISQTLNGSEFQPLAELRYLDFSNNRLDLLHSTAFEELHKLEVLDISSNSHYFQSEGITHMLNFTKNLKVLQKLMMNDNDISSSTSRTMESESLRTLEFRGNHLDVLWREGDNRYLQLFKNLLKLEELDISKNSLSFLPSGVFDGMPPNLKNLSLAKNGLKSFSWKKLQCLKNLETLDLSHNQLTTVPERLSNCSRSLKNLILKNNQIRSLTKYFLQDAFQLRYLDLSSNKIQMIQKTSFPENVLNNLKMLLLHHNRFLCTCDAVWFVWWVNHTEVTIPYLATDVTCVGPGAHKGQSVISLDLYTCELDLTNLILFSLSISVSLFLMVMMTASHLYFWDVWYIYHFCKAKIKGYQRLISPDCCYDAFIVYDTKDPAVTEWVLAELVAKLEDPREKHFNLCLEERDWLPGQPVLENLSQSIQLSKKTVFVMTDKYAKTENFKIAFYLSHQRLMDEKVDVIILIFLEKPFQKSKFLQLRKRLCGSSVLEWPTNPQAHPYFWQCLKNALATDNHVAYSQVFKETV
Summary of the method: (§1)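 HEK-Blue cells overexpressing the receptor, with NF-κB/AP-1-driven SEAP, were pre-treated 30 min at room temperature with compound (0.05 nM–50 μM), then stimulated with gardiquimod 7.5 μM (TLR7), R848 15.9 μM (TLR8) or ODN2006 5 nM (TLR9). SEAP was read after 22 h at 37 °C as percent inhibition.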

human TLR8 = target: T2, human TLR8 (Homo sapiens, UniProt Q9NR97); assay: TLR8 inhibition reporter assay (HEK-Blue cells, SEAP reporter, R848 stimulation); conditions: HEK-Blue cells overexpressing human TLR8, SEAP reporter, R848 15.9 μM
T2 construct: host or cells: HEK-Blue cells (HEK293-derived reporter line)
T2 sequence (Q9NR97 27-1041): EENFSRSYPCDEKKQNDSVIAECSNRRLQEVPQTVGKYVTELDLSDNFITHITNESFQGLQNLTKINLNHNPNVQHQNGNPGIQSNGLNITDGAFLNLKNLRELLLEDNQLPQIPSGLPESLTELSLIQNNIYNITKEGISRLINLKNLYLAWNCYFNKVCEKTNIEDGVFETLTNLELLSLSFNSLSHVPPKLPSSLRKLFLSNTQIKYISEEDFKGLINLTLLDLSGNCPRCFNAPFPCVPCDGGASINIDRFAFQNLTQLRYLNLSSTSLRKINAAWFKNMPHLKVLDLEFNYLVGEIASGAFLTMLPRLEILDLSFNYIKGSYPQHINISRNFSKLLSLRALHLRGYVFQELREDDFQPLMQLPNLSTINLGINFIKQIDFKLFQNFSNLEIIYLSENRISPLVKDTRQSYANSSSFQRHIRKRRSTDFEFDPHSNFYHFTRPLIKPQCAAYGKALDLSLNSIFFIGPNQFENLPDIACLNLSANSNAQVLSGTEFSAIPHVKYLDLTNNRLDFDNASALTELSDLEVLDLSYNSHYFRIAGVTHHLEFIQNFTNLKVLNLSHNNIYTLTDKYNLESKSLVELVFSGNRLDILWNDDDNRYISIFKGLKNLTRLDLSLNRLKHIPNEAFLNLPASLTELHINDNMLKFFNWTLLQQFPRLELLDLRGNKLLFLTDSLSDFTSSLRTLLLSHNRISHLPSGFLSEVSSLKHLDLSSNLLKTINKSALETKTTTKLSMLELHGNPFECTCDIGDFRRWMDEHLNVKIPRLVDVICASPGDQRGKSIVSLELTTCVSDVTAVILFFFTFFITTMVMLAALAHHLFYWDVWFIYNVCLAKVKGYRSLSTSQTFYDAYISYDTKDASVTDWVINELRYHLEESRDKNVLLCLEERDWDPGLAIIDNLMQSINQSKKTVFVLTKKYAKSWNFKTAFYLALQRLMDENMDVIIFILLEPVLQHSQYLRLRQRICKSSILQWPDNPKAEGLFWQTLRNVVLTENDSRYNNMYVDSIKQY
Summary of the method: as §1

human TLR9 = target: T3, human TLR9 (Homo sapiens, UniProt Q9NR96); assay: TLR9 inhibition reporter assay (HEK-Blue cells, SEAP reporter, ODN2006 stimulation); conditions: HEK-Blue cells overexpressing human TLR9, SEAP reporter, ODN2006 5 nM
T3 construct: host or cells: HEK-Blue cells (HEK293-derived reporter line)
T3 sequence (Q9NR96 26-1032): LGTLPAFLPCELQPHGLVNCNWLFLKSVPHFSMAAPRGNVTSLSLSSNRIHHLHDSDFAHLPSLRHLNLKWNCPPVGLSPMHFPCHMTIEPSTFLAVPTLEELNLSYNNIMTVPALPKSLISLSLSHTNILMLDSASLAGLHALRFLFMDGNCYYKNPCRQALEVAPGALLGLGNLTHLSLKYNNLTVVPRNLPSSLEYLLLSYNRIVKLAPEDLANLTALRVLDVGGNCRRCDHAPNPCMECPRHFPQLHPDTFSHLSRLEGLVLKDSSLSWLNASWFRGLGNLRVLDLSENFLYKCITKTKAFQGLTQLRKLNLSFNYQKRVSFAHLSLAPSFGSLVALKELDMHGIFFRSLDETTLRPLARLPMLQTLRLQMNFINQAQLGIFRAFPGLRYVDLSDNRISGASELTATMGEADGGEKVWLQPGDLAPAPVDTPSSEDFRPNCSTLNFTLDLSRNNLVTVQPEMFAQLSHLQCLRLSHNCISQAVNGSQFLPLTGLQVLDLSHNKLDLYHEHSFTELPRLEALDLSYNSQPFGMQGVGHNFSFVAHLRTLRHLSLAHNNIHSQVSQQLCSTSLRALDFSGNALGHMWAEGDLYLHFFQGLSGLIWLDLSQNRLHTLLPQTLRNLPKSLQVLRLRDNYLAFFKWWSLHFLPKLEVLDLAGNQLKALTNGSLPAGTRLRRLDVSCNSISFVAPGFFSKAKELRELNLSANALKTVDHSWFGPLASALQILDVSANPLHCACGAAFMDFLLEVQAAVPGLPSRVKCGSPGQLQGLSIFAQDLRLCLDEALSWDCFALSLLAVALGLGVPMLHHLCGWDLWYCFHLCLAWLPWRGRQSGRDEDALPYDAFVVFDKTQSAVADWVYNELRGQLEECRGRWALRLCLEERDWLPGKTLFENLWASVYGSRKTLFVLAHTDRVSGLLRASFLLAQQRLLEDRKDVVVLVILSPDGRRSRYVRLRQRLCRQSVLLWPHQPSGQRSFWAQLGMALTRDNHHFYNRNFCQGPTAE
Summary of the method: as §1

| IC50 (human TLR7) [nM] | IC50 (human TLR8) [nM] | IC50 (human TLR9) [nM] | SMILES |
| --- | --- | --- | --- |
| < 100 | < 100 | 1000 to 50000 | CC(C)c1c(-c2cnc3cn[nH]c3c2)[nH]c2ccc(C3CCN(C(=O)CN(C)C)CC3)cc12 [Example 526, 2-(dimethylamino)-1-(4-(3-isopropyl-2-(1H-pyrazolo[4,3-b]pyridin-6-yl)-1H-indol-5-yl)piperidin-1-yl)ethan-1-one] |
| < 100 | 100 to 1000 | > 50000 | CNC(=O)CN1CCC(c2ccc3[nH]c(-c4ccc5c(cnn5C)c4C)c(C(C)C)c3c2)CC1 [Example 365, 2-(4-(2-(1,4-dimethyl-1H-indazol-5-yl)-3-isopropyl-1H-indol-5-yl)piperidin-1-yl)-N-methylacetamide] |
| < 100 | < 100 | 100 to 1000 | COc1ccc(CN2CCC(c3ccc4[nH]c(-c5ccc6nccn6c5)c(C(C)C)c4c3)CC2)cn1 [Example 935, 6-(3-isopropyl-5-(1-((6-methoxypyridin-3-yl)methyl)piperidin-4-yl)-1H-indol-2-yl)imidazo[1,2-a]pyridine] |
| < 100 | < 100 | 1000 to 50000 | CC(C)c1c(-c2cn3ccnc3cc2Cl)[nH]c2ccc(C3CCN(CC(=O)N(C)C)CC3)cc12 [Example 428, 2-(4-(2-(7-chloroimidazo[1,2-a]pyridin-6-yl)-3-isopropyl-1H-indol-5-yl)piperidin-1-yl)-N,N-dimethylacetamide] |
| < 100 | < 100 | 100 to 1000 | CC(C)c1c(-c2ccnc3[nH]ncc23)[nH]c2cc(F)c(C3CCN(CC4CCN(C(C)C)C4)CC3)cc12 (stereo not drawn) [Example 852, 4-(6-fluoro-3-isopropyl-5-(1-((1-isopropylpyrrolidin-3-yl)methyl)piperidin-4-yl)-1H-indol-2-yl)-1H-pyrazolo[3,4-b]pyridine] |

Continued, compound first:

| SMILES | IC50 (human TLR7) [nM] | IC50 (human TLR8) [nM] | IC50 (human TLR9) [nM] |
| --- | --- | --- | --- |
| CCc1c(-c2ccnc3[nH]ncc23)[nH]c2ccc(C3CCN(Cc4cncn4C)CC3)cc12 [Example 911, 4-(3-ethyl-5-(1-((1-methyl-1H-imidazol-5-yl)methyl)piperidin-4-yl)-1H-indol-2-yl)-1H-pyrazolo[3,4-b]pyridine] | 100 to 1000 | < 100 | 1000 to 50000 |
| CC(C)c1c(-c2ccnc3[nH]ncc23)[nH]c2ccc(C3CCN(C4CCCNC4)CC3)cc12 (stereo not drawn) [Example 653, 4-(5-([1,3′-bipiperidin]-4-yl)-3-isopropyl-1H-indol-2-yl)-1H-pyrazolo[3,4-b]pyridine] | < 100 | < 100 | 100 to 1000 |
| CC(C)c1c(-c2cn3ccnc3cc2C(F)(F)F)[nH]c2ccc(C3CCN(CC(=O)N(C)C)CC3)cc12 [Example 427, 2-(4-(3-isopropyl-2-(7-(trifluoromethyl)imidazo[1,2-a]pyridin-6-yl)-1H-indol-5-yl)piperidin-1-yl)-N,N-dimethylacetamide] | 100 to 1000 | < 100 | 1000 to 50000 |
| CC(C)c1c(-c2ccnc3[nH]ncc23)[nH]c2ccc(C3CCN(Cc4nccc5ccccc45)CC3)cc12 [Example 910, 1-((4-(3-isopropyl-2-(1H-pyrazolo[3,4-b]pyridin-4-yl)-1H-indol-5-yl)piperidin-1-yl)methyl)isoquinoline] | 100 to 1000 | 100 to 1000 | 1000 to 50000 |
| Cc1c(-c2[nH]c3ccc(C4CCN(CC(=O)N(C)C)CC4)cc3c2C(C)C)ccc2nnnn12 [Example 308, 2-(4-(3-isopropyl-2-(5-methyltetrazolo[1,5-a]pyridin-6-yl)-1H-indol-5-yl)piperidin-1-yl)-N,N-dimethylacetamide] | 100 to 1000 | < 100 | 1000 to 50000 |
| Cc1cn2c(C)cc(-c3[nH]c4ccc(C5CCN(CC(=O)N(C)C)CC5)cc4c3C(C)C)cc2n1 [Example 353, 2-(4-(2-(2,5-dimethylimidazo[1,2-a]pyridin-7-yl)-3-isopropyl-1H-indol-5-yl)piperidin-1-yl)-N,N-dimethylacetamide] | 100 to 1000 | 1000 to 50000 | 100 to 1000 |
| Cc1c(-c2[nH]c3ccc(C4CCN(C(=O)CN(C)C)CC4)cc3c2C(C)C)cn2ccnc2c1C [Example 549, 2-(dimethylamino)-1-(4-(2-(7,8-dimethylimidazo[1,2-a]pyridin-6-yl)-3-isopropyl-1H-indol-5-yl)piperidin-1-yl)ethan-1-one] | < 100 | < 100 | 100 to 1000 |
| Cc1cc(-c2[nH]c3ccc(C4CCN(C(=O)CN(C)C)CC4)cc3c2C(C)C)cn2nnnc12 [Example 477, 2-(dimethylamino)-1-(4-(3-isopropyl-2-(8-methyltetrazolo[1,5-a]pyridin-6-yl)-1H-indol-5-yl)piperidin-1-yl)ethan-1-one] | < 100 | < 100 | 1000 to 50000 |
| Cc1cc(-c2[nH]c3ccc(C4CCNCC4)cc3c2C(C)C)cc2nccn12 [Example 161, 7-(3-isopropyl-5-(piperidin-4-yl)-1H-indol-2-yl)-5-methylimidazo[1,2-a]pyridine] | 100 to 1000 | < 100 | 100 to 1000 |
